# According to patent publication US20180185423A1, “SEAWEED EXTRACTS WITH ANTI-CANCER ACTIVITY” (OCEANS LTD., priority 2015, published 2018):
# “And” between values parts separate entries of the source, which are not always exact repeats. Equal values may be shown once.
# Columns and labels:
# Experiment in all cases: CIMA assay (colorimetric indicator of metabolic activity), 72 h exposure
# PC3 = format: cell-based; details: PC3, SDS 5% control; 0 = 100.0
# Procedure: (§1) Stock solutions of the extracts were prepared in dimethylsulfoxide (DMSO) at 10 mg/mL and stored in 200 μl aliquots at −20° C. until analysis. This preparation ensured that the DMSO delivered to cells in culture never exceeded 1%.
# (§2) Prepared extracts were assessed following chronic exposure conditions in which cells were seeded at 2×10^3 cells/well (96 wells plate) and incubated with test compounds for 72 h. Each compound was evaluated over a range of concentrations (0, 10, 25, 50 or 100 μg/ml). Cell proliferation was initially assessed using a standard colorimetric indicator of metabolic activity (CIMA) assay. In this assay, tetrazole reduction was evaluated as a measure of metabolic function that evaluates mitochondrial activity to determine the extent of cell proliferation within a culture. This assay is based on the reduction of yellow tetrazolium salt to purple formazan by mitochondrial reductases enzyme in viable cells, resulting in a color changed that confers a change in absorbance. […] From the results shown in Table 2 and FIGS. 4 and 5, the extracts were selected for additional fractionation and evaluated in the same manner.
# A549 (lung carcinoma) = format: cell-based, human; details: A549, SDS 5% control; 0 = 100.0
# Procedure: as §1, §2
# [1] = system: U373 (glioblastoma-astrocytoma); format: cell-based, human; details: U373, SDS 5% control; 0 = 100.0; in % (unit assumed)
# Procedure: as §1
# (§3) Prepared extracts were assessed following chronic exposure conditions in which cells were seeded at 2×10^3 cells/well (96 wells plate) and incubated with test compounds for 72 h. Each compound was evaluated over a range of concentrations (0, 10, 25, 50 or 100 μg/ml). Cell proliferation was initially assessed using a standard colorimetric indicator of metabolic activity (CIMA) assay. In this assay, tetrazole reduction was evaluated as a measure of metabolic function that evaluates mitochondrial activity to determine the extent of cell proliferation within a culture. This assay is based on the reduction of yellow tetrazolium salt to purple formazan by mitochondrial reductases enzyme in viable cells, resulting in a color changed that confers a change in absorbance. Six human cell lines were selected for primary evaluation: U373 (glioblastoma-astrocytoma), A549 (lung carcinoma), THP-1 (acute monocytic leukemia), MCF7 (mammary gland adenocarcinoma), SKOV3 (ovarian adenocarcinoma), and CCD1079SK (fibroblast, noncancerous but proliferating). From the results shown in Table 2 and FIGS. 4 and 5, the extracts were selected for additional fractionation and evaluated in the same manner.
# (§4) Lead crude extracts were fractionated into five fractions by C-18 SPE column separation using 15 ml each of 5% methanol (fraction 1), 25% methanol (fraction 2), 50% methanol (fraction 3), 100% methanol (fraction 4) and […] (fraction 5). Extracts were fractionated and the resulting fractions were evaluated using CIMA assay. Bio-assay guided fractionation provided detailed information regarding the compound(s) responsible for specific bioactivity.
# [2] = system: MCF7 (mammary gland adenocarcinoma); format: cell-based, human; details: MCF7, SDS 5% control; 0 = 100.0; in % (unit assumed)
# Procedure: as §1, §3, §4
# [3] = system: SKOV3 (ovarian adenocarcinoma); format: cell-based, human; details: SKOV3, SDS 5% control; 0 = 100.0; in % (unit assumed)
# Procedure: as §1, §3, §4
# [4] = system: THP-1 (acute monocytic leukemia); format: cell-based, human; details: THP-1, SDS 5% control; 0 = 100.0; in % (unit assumed)
# Procedure: as §1, §3, §4
# [5] = system: CCD1079SK (fibroblast, noncancerous but proliferating); format: cell-based, human; details: SDS 5% control, 0 = 100.0, in % (unit assumed)
# Procedure: as §1, §3, §4
compound,measurement,setting,value
CCCCCCCCCCCCOS(=O)(=O)[O-].[Na+] [SDS],"AVG (viability, CIMA assay)",PC3,77.3%
same,"AVG (viability, CIMA assay)",A549 (lung carcinoma),68.7%
same,"AVG (viability, CIMA assay)",[1],48.4 and 58.1
same,"AVG (viability, CIMA assay)",[2],44.1 and 49.9
same,"AVG (viability, CIMA assay)",[3],78.9 and 56.5
same,"AVG (viability, CIMA assay)",[4],20.3 and 36.2
same,"AVG (viability, CIMA assay)",[5],9.4 and 11.3
